Experiments:
SK7 mouse ES cells = assay: Screening for β cell differentiation enhancer using SK7 mouse ES cells (Pdx1-GFP); format: cell-based
Description: The SK7 mouse ES cells were differentiated into β cells basically according to the previous report (Nakashima et al., 2015). Briefly, the cells were seeded at 5,000 cells per well in CellBIND 384-well (CORNING, 3770) cell culture plate or at 20,000 cells per well in a 96-well plate (Sigma) coated with 0.2% gelatin. Then, the cells were cultured in medium 1 from days 1 to 5. Medium 1 consisted of DMEM (high glucose) (Life Technologies, 11965092) supplemented with 0.1 mM NEAA (Gibco, 11140-50), 2 mM L-glutamine (Nacalai, 16948-04), 100 U/mL penicillin-streptomycin (Nacalai, 26252-94), 0.01 mM β-mercaptoethanol (Sigma), 1% insulin-transferrin-selenium supplement (ITS: Life Technologies, 41400045), 0.25% Albumax (Thermo Fisher, 11020021), and 10 ng/mL recombinant human activin-A (R&D Systems, 338-AC). Subsequently, the cells were cultured for 1 day in medium 2 which consisted of medium 1 supplemented with 10 μM retinoic acid (Stemgent, 04-0021). On day 6, the medium was replaced with medium 3, and the culture was continued until day 12 in order to induce differentiation into β cells. Medium 3 consisted of DMEM (low glucose) (Life Technologies, 11885084) supplemented with 0.1 mM NEAA, 2 mM L-glutamine, 100 U/mL penicillin-streptomycin, 0.1 mM β-mercaptoethanol, 1% ITS, 0.25% Albumax, and 3 mM nicotinamide (Sigma-Aldrich, N0636-500G). A test compound was added on day 8, and the cells were fixed in 4% paraformaldehyde for analysis using a high-content imager.
A chemical library consisting of about 55,000 compounds was screened for a substance that induced β cell differentiation. […] Fluorescence images were quantified using Operetta high-content imaging system and Harmony image analysis software (PerkinElmer, Germany). The nuclei were identified by DAPI staining, and the positivity of antibody staining was determined from the fluorescence intensity of a cytoplasmic region surrounding the nucleus. The number of cells positive to both insulin and GFP was counted and normalized with the total number of DAPI-positive cells or a positive area. A median of quadruple data was calculated, and screening hits were defined as states in which the number of insulin- and GFP-positive cells was increased as compared with a DMSO control. […] The activity of the selected candidate compounds was further analyzed with Toe human iPS cell assay system in order to select a hit compound having effectiveness for both differentiation into mouse β cells and differentiation into human β cells. A compound was added as described above, and its effectiveness was evaluated from a mRNA expression level by q-PCR in triplet experiments. […]

Toe human iPS cells = assay: Differentiation of Toe human iPS cells into iPS-β cells, monolayer culture, protocol #1; format: cell-based; conditions: treatment from later stage of stage 3 to initial stage of stage 5
Description: The Toe human iPS cells were seeded in CellBIND 6-well (CORNING, CLS3335) cell culture plate coated with synthemax II, and differentiated into primitive gut tube cells by the previously described method (Shahjalal et al., 2014). The cells were dissociated with TrypLE Select (Thermo Fisher, 12563011) and cryopreserved in BanBanker (Nippon genetics) at a density of 1.0 to 2.0×10^7 cells/mL until use. One day before compound addition, the cells were thawed in a medium for stage 3 (DMEM (high glucose), 0.25 μM SANT1 (Wako, 197-16351), 0.1 μM LDN193189 (Stemgent, 04-0074), 10 μM SB431542, 2 μM retinoic acid, 1% B27-free serum supplement (Life Technologies, 17504044), and seeded at 150,000 cells per well in CellBIND 96-well (Corning, 3340) cell culture plated coated with synthemax II. The cells were cultured for 1 day in a medium for stage 3 containing a test compound or a negative control (0.01% DMSO). The cells were further cultured for 2 days and 1 day in media for stages 4 and 5, respectively, containing the test compound or the negative control. On the next day, the cells were fixed in 4% paraformaldehyde for analysis using a high-content imager.

Compound: O=C1CCC(C(=O)Nc2ncc(-c3ccccc3)s2)n2cccc21 (stereo not shown) [Synthesis Example 1, 8-Oxo-N-(5-phenylthiazol-2-yl)-6,7-dihydro-5H-indolizine-5-carboxamide]
- number of Pdx1-GFP+Ins+ double-positive cells (SK7 mouse ES cells; K-1 in combination with γ-secretase inhibitor LY411575): further enhanced increase
- ratio of Pdx1-GFP+insulin+ double-positive cells (SK7 mouse ES cells; dose-dependent, compound added on day 8): increased
- expression of insulin 1 (SK7 mouse ES cells; dose-dependent, mRNA normalized with Hprt1): increased
- differentiation into iPS-β cells (INS+ cells) (Toe human iPS cells): enhanced differentiation into iPS-β cells
